For assay [1], the target named is T1, Adenosine receptor A2a (Homo sapiens, UniProt P29274). In words: Competitive binding affinity to human adenosine A2A receptor expressed in HEK293 cells after 60 mins by fluorescence polarization assay in presence of MRS5346.
In assay [2] the target is Uncharacterized protein (Bos taurus, UniProt E1BKU0). Kind of assay: Displacement of [3H]CGS21680 from adenosine A2A receptor in bovine striatal membranes after 90 mins by liquid scintillation counting analysis. It is filed as cell membranes, Striatum, Membrane.
Sequence of Uncharacterized protein (E1BKU0 whole entry): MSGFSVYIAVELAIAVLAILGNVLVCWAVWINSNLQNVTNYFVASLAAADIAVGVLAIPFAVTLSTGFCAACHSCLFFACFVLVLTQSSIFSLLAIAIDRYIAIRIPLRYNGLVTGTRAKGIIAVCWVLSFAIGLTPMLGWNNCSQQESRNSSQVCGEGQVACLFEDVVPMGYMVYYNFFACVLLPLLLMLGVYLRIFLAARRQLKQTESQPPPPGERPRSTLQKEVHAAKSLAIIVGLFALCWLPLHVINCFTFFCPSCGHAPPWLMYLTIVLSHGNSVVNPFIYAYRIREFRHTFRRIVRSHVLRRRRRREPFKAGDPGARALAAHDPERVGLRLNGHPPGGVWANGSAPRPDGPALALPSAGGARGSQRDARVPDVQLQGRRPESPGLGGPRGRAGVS
The target in assay [3] is T2, Adenosine receptor A3 (Homo sapiens, UniProt P0DMS8).
T2 sequence (P0DMS8 whole entry): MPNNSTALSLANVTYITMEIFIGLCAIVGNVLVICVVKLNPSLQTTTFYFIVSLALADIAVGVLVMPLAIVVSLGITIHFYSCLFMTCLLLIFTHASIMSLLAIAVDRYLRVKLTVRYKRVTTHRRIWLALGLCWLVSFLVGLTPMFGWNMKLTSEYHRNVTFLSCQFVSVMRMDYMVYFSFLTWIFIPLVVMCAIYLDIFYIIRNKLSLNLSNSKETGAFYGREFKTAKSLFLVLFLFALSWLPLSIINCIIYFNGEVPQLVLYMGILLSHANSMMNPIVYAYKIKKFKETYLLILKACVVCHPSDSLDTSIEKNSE
It is filed as cell-based, CHO.

The target in assay [4] is T2, Adenosine receptor A3. In words: Binding affinity to human adenosine A3 receptor expressed in CHO cells after 90 mins. The assay is classed as cell-based.
Assay [5] concerns the target T1, Adenosine receptor A2a. In words: Displacement of [3H]CGS21680 from human adenosine A2A receptor expressed in HEK293 cells after 60 mins by […] analysis. The assay is classed as cell-based.
Assay [6] deals with T3, Adenosine receptor A1 (Homo sapiens, UniProt P30542).
T3 sequence (P30542 whole entry): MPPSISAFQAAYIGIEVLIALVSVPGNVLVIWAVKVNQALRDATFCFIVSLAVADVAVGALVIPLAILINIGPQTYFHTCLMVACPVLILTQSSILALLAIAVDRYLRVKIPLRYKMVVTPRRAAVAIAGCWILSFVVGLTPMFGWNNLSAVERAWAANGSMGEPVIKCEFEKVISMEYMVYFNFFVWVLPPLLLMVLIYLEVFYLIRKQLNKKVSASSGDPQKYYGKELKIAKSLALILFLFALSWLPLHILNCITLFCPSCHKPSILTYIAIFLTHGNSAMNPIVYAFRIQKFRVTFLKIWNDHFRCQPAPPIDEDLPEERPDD
Kind of assay: Displacement of [3H]R-PIA from human adenosine A1 receptor expressed in CHO cells after 60 mins by […] analysis. The assay is classed as cell-based.

Assay [7] deals with T2, Adenosine receptor A3. Kind of assay: Binding affinity to human adenosine A3 receptor expressed in CHO cells by flow cytometric analysis. The assay is classed as cell-based.

The source of these data is ChEMBL document CHEMBL2412992, “Fluorescent ligands for adenosine receptors” (Bioorg Med Chem Lett, 2013).

T1 sequence (P29274 whole entry): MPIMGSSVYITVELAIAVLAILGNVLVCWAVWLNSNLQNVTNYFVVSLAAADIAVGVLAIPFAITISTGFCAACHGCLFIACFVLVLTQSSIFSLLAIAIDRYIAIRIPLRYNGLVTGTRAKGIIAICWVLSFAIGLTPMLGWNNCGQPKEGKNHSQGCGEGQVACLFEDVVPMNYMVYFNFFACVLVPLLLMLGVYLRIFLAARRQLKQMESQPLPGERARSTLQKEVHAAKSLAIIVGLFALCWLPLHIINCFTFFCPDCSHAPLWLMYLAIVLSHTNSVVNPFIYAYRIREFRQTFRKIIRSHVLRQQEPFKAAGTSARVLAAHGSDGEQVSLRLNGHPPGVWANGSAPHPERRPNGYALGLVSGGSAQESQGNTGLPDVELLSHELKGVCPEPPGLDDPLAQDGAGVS

Turning to `OC[C@H]1O[C@@H](n2cnc3c(NC4CCCC4)ncnc32)[C@H](O)[C@@H]1O` [N6-CYCLOPENTYLADENOSINE], the inhibitory constant (Ki) in assay [1] came to 814 nM.
The compound `CCNC(=O)[C@H]1O[C@@H](n2cnc3c(N)nc(NCCc4ccc(CCC(=O)NCCNC(=S)Nc5ccc(C6c7ccc(O)cc7OC7=CC(=O)C=CC76)c(C(=O)O)c5)cc4)nc32)[C@H](O)[C@@H]1O` (some centres not stated) showed a Ki in assay [2] of 11.2 nM.
For `N=c1ccc2c(-c3ccc(C(=O)NCCCCCCn4cc(CCCC(=O)Nc5nc6ccc(Cl)cc6c6nc(-c7ccco7)nn56)nn4)cc3C(=O)O)c3ccc(N)c(S(=O)(=O)O)c3oc-2c1S(=O)(=O)O`, the figures for the Ki in assay [3], in assay [5] and in assay [6] were 6.46 nM, 74.1 nM and 87.1 nM, respectively. In addition, the Kd in assay [4] turned out to be 6.65 nM; in assay [7], 5.15 nM.
